Results from paper PMC9607427, “Novel 7-Chloro-(4-thioalkylquinoline) Derivatives: Synthesis and Antiproliferative Activity through Inducing Apoptosis and DNA/RNA Damage” (Pharmaceuticals, 2022).

How the values were obtained:
[1] = Cytotoxic MTS assay, whole panel of tested cell lines; format: cell-based, human; settings: human; MTS, 72 h of incubation, all tested cell lines; read-out: Cytotoxic activity IC50, tested cell lines (considered inactive)
Protocol: (§1) In vitro cytotoxic activity of final compounds 5–82 was evaluated after 3 days of incubation against eight cell lines derived from human solid tumors including lung (A549 cells) and colon (HCT116 and HCT116p53−/−) carcinomas, as well as leukemia cell lines (CCRF-CEM, CEM-DNR, K562, and K562-TAX) and osteosarcoma (U2OS cells). For comparison, non-malignant BJ and MRC-5 fibroblasts, and BJLD and MCR-5LD fibroblasts doxorubicin-resistant cell lines were used. Concentrations inhibiting the cell growth by 50% (IC50) were determined using a quantitative metabolic staining with 3-(4,5-dimethylthiazol-2yl)-5-(3-carboxymethoxyphenyl)-2-(4-sulfophenyl)-2H-tetrazolium (MTS) and are summarized in (Table 3).
(§2) Cytotoxic activity was determined by MTS assay following 72 h of incubation. IC50 is the lowest concentration that kills 50% of cells. The standard deviation in cytotoxicity assays is typically up to 20% of the average value. […] The tested cell lines: A549 (lung adenocarcinoma), BJ (noncancerous human fibroblasts from foreskin), BJLD (human lung fibroblast doxorubicin-resistant), CCRF-CEM (childhood T cell acute lymphoblastic leukemia), a daunorubicin-resistant subline of CCRF-CEM cells (CEM-DNR bulk), HCT116 (colorectal carcinoma), HCT116p53−/− (HCT116 with deleted p53 gene), K562 (chronic myeloid leukemia), K562-TAX (chronic myeloid leukemia paclitaxel-resistant subline), MRC-5 (noncancerous human lung fibroblasts), MRC-5LD (noncancerous human lung fibroblasts doxorubicin-resistant), and U2OS (osteosarcoma).
(§3) All cell lines were purchased from the American Tissue Culture Collection (ATCC). The A549 cell line is lung adenocarcinoma. MRC-5 and BJ cell lines were used as a non-tumor control and represent human fibroblasts. (MRC-5 LD and BJLD) are doxorubicin-resistant human lung fibroblast cell lines. The CCRF-CEM line is derived from T lymphoblastic leukemia, evincing high chemosensitivity, whereas K562 represent cells from an […] patient sample with bcr-abl translocation. The daunorubicin-resistant subline of CCRF-CEM cells (CEM-DNR bulk) and paclitaxel-resistant subline K562-TAX were selected in our laboratory by the cultivation of maternal cell lines in increasing concentrations of daunorubicin or paclitaxel, respectively. The CEM-DNR bulk cells overexpress MRP-1 and P-glycoprotein protein, whereas K562-TAX cells overexpress P-glycoprotein only. Both proteins belong to the family of ABC transporters and are involved in the primary and/or acquired multidrug-resistance phenomenon. The U2OS cell line is derived from osteosarcoma, HCT116 is a colorectal tumor cell line and its p53 gene knock-down counterpart (HCT116p53−/−, Horizon Discovery Ltd., Cambridge, UK) is a model of human cancers with p53 mutation frequently associated with poor prognosis. The cells were maintained in nunc/corning 80 cm^2 plastic tissue culture flasks and cultured in a cell culture medium according to ATCC or Horizon recommendations (DMEM/RPMI 1640 with 5 g/L glucose, 2 mM glutamine, 100 U/mL penicillin, […], 10% fetal calf serum, and NaHCO3).
(§4) The activity of compounds was determined using a standard 3-(4,5-dimethylthiazol-2-yl)-5-(3-carboxymethoxyphenyl)-2-(4-sulfophenyl)-2H-tetrazolium (MTS) and it was performed at the Institute of Molecular and Translational Medicine by a robotic platform (High-ResBiosolutions). Cell suspensions were prepared and diluted according to the particular cell type and the expected target cell density (25,000–35,000 cells/mL based on cell growth characteristics). Cells were added by automatic pipettor (30 µL) into 384-well microtiter plates. All tested compounds were dissolved in 100% DMSO and four-fold dilutions of the intended test concentration were added in 0.15 µL aliquots at time zero to the microtiter plate wells by the echo acoustic non-contact liquid handler Echo550 (Labcyte). […]

[2] = system: HCT116p53−/− (HCT116 with deleted p53 gene); assay: Cytotoxic MTS assay, HCT116p53−/−; format: cell-based, human
Procedure, shortened: (§5)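 IC50 values derive from MTS metabolic staining after 3 days of compound exposure, at least three biological replicates in technical duplicate; SD typically up to 20% of the mean.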

[3] = system: BJ (noncancerous human fibroblasts from foreskin); assay: Cytotoxic MTS assay, BJ; format: cell-based
Procedure, shortened: as §5

[4] = system: CCRF-CEM (childhood T cell acute lymphoblastic leukemia); assay: Cytotoxic MTS assay, CCRF-CEM; format: cell-based, human
Procedure, shortened: as §5

[5] = system: A549 (lung adenocarcinoma); assay: Cytotoxic MTS assay, A549; format: cell-based, human
Procedure, shortened: as §5

[6] = system: K562 (chronic myeloid leukemia); assay: Cytotoxic MTS assay, K562; format: cell-based, human
Procedure, shortened: as §5

[7] = system: MRC-5LD (noncancerous human lung fibroblasts doxorubicin-resistant); assay: Cytotoxic MTS assay, MRC-5LD; format: cell-based
Procedure, shortened: as §5

[8] = system: BJLD (human lung fibroblast doxorubicin-resistant); assay: Cytotoxic MTS assay, BJLD; format: cell-based
Procedure, shortened: as §5

[9] = system: HCT116 (colorectal carcinoma); assay: Cytotoxic MTS assay, HCT116; format: cell-based, human
Procedure, shortened: as §5

[10] = system: K562-TAX (chronic myeloid leukemia paclitaxel-resistant subline); assay: Cytotoxic MTS assay, K562-TAX; format: cell-based, human
Procedure, shortened: as §5

[11] = system: CEM-DNR bulk (daunorubicin-resistant subline of CCRF-CEM cells); assay: Cytotoxic MTS assay, CEM-DNR; format: cell-based, human
Procedure, shortened: as §5

[12] = system: eight human cancer and 4 non-tumor cell lines; assay: Cytotoxic MTS assay, whole panel of tested cell lines; format: cell-based; settings: leukemic and colorectal (with and without p53 deletion) cancer cells vs MRC-5
Protocol: as §1, §2, §3, §4

U2OS (osteosarcoma) = assay: Cytotoxic MTS assay, U2OS; format: cell-based, human
Procedure, shortened: as §5

[13] = system: MRC-5 (noncancerous human lung fibroblasts); assay: Cytotoxic MTS assay, MRC-5; format: cell-based
Procedure, shortened: as §5

**Q.** Which melting point does the source give for `O=C(OCC[S+]([O-])c1ccnc2cc(Cl)ccc12)c1ccc(C(F)(F)F)cc1` (stereo not shown) [Compound 51, 2-[(7-Chloroquinolin-4-yl)sulfinyl]ethyl-4-(trifluoromethyl)benzoate] here?
**A.** The melting point was 148 to 150 °C.

**Q.** What about the IC50 at 72 h [1] of the same molecule?
**A.** Its IC50 at 72 h is greater than 50 µM.

**Q.** Which IC50 at 72 h [1] does the source give for `COc1cc(OC)c(C(=O)OCCC[S+]([O-])c2ccnc3cc(Cl)ccc23)cc1OC` (stereo not shown) [Compound 56, 3-[(7-Chloroquinolin-4-yl)sulfinyl]propyl-2,4,5-trimethoxybenzoate] here?
**A.** Its IC50 at 72 h is greater than 50 µM.

**Q.** With `COc1ccccc1C(=O)OCCC[S+]([O-])c1ccnc2cc(Cl)ccc12` (stereo not shown) [Compound 58, 3-[(7-Chloroquinolin-4-yl)sulfinyl]propyl-2-methoxybenzoate] as the molecule, how does the IC50 at 72 h [1] read?
**A.** Its IC50 at 72 h is greater than 50 µM.

**Q.** With `CC(C)(C)c1ccc(C(=O)OCC[S+]([O-])c2ccnc3cc(Cl)ccc23)cc1` (stereo not shown) [Compound 52, 2-[(7-Chloroquinolin-4-yl)sulfinyl]ethyl-4-tert-butylbenzoate] as the molecule, how does the melting point read?
**A.** Its melting point is 106 °C.

**Q.** And the IC50 at 72 h [1]?
**A.** Its IC50 at 72 h is greater than 50 µM.

**Q.** Which results are given for `COc1ccc(C(=O)OCCCS(=O)(=O)c2cc[n+]([O-])c3cc(Cl)ccc23)cc1` [Compound 73, 3-[(N-Oxide 7-chloroquinolin-4-yl)sulfonyl]propyl-4-methoxybenzoate]?
**A.** IC50 [2]: 2.24 µM; IC50 [3]: 12.4 µM; IC50 [4]: 2.18 µM; IC50 [5]: 5.44 µM; IC50 [6]: 2.2 µM; IC50 [7]: 19 µM; IC50 [8]: 10.7 µM; IC50 [9]: 1.99 µM; IC50 [10]: 4.62 µM; IC50 [11]: 4.7 µM; Selectivity for leukemic and colorectal cancer cells compared to MRC-5 [12]: good selectivity; IC50 (U2OS (osteosarcoma)): 5.75 µM; IC50 [13]: 21.9 µM
